Measurements taken from patent publication US10793563B2, “GCN2 inhibitors and uses thereof” (Merck Patent GmbH, priority 2018, dated 2020).

Assays:
[1] = system: primary human pan T-cells; test: Human IL-2 Assay for GCN2 Inhibition (IL-2 secretion from T cells in low amino acid condition); format: cell-based; conditions: Homo sapiens, T-cell, 96 h, IL-2 secretion from human T cells stimulated with anti-CD3/CD28 in low amino acid condition, ELISA, read-out: IL2/T-cell EC50
Description: Tumor microenvironment is profoundly immuno-suppressive. This may be attributed to the depletion of amino acids (like arginine and tryptophan) which triggers the activation of GCN2 in immune cells, including T cell and myeloid cells. In T cells, activation of GCN2 leads to reduce effector functions of CD8 T cells and induction and/or maintenance of immuno-suppressive T-regs. Inhibition of that immuno-suppressive response by GCN2 inhibitors enables an anti-cancer immune response by activating effector T-cells. Herein we describe an in-vitro system we established using human T-cells stimulated in low amino acid condition in order to engage the GCN2 biology. The method described involves the modulation of IL-2 levels secreted by human T cells in responses to the GCN2 inhibitors disclosed herein.
Amino acid-free RPMI was reconstituted with all but one of the amino acids found in standard RMPI (e.g. Arginine, Tryptophan), 10% charcoal-stripped fetal bovine serum, 100 Units/mL penicillin and 0.1 mg/mL streptomycin. Primary human pan T-cells were isolated using Pan T Cell Isolation Kit, human (MACS Miltenyi biotech Cat # Order no. 130-096-535) from apheresis cones and 5×104 pan T-cells per well. The purified T cells are seeded in Nunc™ 96-Well Polystyrene Round Bottom Microwell Plates (the cells are rested in No TRP media in a 15 ml falcon tube in the incubator for 30-45 minutes while titrations for tryptophan and the GCN2 inhibitor compound are made) A plate matrix was developed to titrate both a GCN2 inhibitor and the amino acid of interest ranging from “No Amino Acid” condition, up to the concentration found in the regular RPMI media (20 μM for TRP and 950 μM for Arginine). The cells were incubated for 30 min at 37° C. with the GCN2 inhibitor and then stimulated with 5×104 anti-CD3/CD28 Dynabeads® per well. After 96 hours of incubation the IL-2 level in the supernatant were measured using ELISA (R&D systems Cat # DY202 (Human IL-2 DuoSet ELISA). Data were plotted in GraphPad Prism software and EC50 is calculated.

GCN2 kinase = GCN2 kinase (Homo sapiens (Human), UniProt Q9P2K8); test: GCN2 Enzyme Inhibition Assay (Transcreener ADP2 fluorescence polarization); format: biochemical; conditions: 280 μM ATP, 200 μM (RS)7 peptide, 4 nM GCN2, 25° C.; for Ki: Ki(app)
Sequence of GCN2 kinase (Q9P2K8 whole entry): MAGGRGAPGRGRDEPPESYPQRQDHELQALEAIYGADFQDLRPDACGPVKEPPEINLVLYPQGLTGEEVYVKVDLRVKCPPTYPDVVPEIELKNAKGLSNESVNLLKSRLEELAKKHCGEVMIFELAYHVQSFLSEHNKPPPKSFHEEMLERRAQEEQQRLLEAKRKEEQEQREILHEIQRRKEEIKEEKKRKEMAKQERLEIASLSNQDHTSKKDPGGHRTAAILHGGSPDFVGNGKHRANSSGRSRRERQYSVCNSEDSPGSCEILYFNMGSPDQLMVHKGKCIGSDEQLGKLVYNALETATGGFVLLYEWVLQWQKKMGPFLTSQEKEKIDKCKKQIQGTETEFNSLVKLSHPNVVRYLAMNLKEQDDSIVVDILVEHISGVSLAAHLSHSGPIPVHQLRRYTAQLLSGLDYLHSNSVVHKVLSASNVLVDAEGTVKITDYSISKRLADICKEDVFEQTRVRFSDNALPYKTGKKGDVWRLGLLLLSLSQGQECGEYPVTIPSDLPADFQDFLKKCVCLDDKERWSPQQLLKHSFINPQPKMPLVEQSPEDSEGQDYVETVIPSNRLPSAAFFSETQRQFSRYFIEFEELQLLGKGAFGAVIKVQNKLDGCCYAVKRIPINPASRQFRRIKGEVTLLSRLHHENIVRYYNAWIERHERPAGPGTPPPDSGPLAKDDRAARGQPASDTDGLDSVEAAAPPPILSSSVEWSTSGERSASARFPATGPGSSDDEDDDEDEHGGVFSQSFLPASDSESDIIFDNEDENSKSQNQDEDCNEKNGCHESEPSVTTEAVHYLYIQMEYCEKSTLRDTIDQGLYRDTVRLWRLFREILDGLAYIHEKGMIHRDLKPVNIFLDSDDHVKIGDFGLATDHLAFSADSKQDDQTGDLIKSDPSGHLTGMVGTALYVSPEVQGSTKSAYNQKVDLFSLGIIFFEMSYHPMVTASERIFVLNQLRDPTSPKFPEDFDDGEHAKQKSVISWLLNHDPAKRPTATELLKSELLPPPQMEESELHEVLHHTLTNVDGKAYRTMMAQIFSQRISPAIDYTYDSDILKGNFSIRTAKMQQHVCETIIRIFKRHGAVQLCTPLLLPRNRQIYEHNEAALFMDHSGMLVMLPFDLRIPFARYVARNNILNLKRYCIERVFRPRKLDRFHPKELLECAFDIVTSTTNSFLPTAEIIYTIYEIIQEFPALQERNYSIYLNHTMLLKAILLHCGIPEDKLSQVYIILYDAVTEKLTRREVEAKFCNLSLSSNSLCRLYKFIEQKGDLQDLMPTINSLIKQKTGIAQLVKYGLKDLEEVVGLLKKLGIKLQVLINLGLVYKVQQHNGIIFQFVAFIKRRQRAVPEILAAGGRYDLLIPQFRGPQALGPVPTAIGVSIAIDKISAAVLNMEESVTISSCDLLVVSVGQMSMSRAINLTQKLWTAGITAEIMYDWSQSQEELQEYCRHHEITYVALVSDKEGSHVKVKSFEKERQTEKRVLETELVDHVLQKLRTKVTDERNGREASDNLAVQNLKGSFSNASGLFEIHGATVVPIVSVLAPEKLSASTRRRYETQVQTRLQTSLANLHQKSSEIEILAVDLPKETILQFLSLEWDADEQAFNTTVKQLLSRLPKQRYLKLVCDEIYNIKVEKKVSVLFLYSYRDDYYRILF
Method in brief: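 Transcreener ADP2 fluorescence polarization detection of ADP from 4 nM GCN2 with (RS)7 substrate in 25 mM Tris-HCl pH 7.5, 50 mM NaCl, 10 mM MgCl2, 1 mM DTT. Compound pre-incubated with enzyme 10 min at 25 °C; reaction started by ATP, run 1 h at 25 °C. IC50 and Ki(app) by tight-binding fit.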

[2] = molecular target: intracellular GCN2 (phosphorylation of the GCN2 substrate eIF2α) (Homo sapiens (Human), UniProt Q9P2K8); test: GCN2 Cellular Inhibition Assay (AlphaScreen SureFire P-eIF2α Ser51, borrelidin-treated U2OS cells); format: cell-based; conditions: 10 μM borrelidin, 1 h, phosphorylated eIF2α Ser51, read-out: GCN2 Biomarker (IC50)
Sequence of intracellular GCN2 (phosphorylation of the GCN2 substrate eIF2α) (Q9P2K8 whole entry): as above
Method in brief: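 U2OS cells adhered overnight, then given compound (top 40 μM, 4-fold serial dilutions) plus 10 μM borrelidin for 1 h at 37 °C. Lysates assayed for eIF2α phospho-Ser51 by AlphaScreen SureFire; % inhibition versus borrelidin-only wells.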

For `C[C@H]1CN(c2ccnc(-c3cnc4cc(F)c(Cl)cn34)n2)C[C@@H](c2cn[nH]c2)O1` [I-568, (2S,6R)-4-(2-(6-chloro-7-fluoroimidazo[1,2-a]pyridin-3-yl)pyrimidin-4-yl)-2-methyl-6-(1H-pyrazol-4-yl)morpholine], the EC50 [1] was 100 to 500 nM.
`C[C@H]1CN(c2ccnc(-c3cnc4ccc(Cl)cn34)n2)[C@@H](C)[C@@H](c2cn[nH]c2)N1` [I-563, 6-chloro-3-(4-((2S,3R,5S)-2,5-dimethyl-3-(1H-pyrazol-4-yl)piperazin-1-yl)pyrimidin-2-yl)imidazo[1,2-a]pyridine] was tested, and the EC50 [1] was 100 to 500 nM.
Work on `NC(=O)[C@H]1CCCN(c2ccnc(-c3cnc4cc(F)c(Cl)cn34)n2)C1` [I-558, (S)-1-(2-(6-chloro-7-fluoroimidazo[1,2-a]pyridin-3-yl)pyrimidin-4-yl)piperidine-3-carboxamide] yielded an EC50 [1] of 100 to 500 nM.
`Cc1[nH]ncc1[C@H]1CN(c2ccnc(-c3cnc4ccc(Cl)cn34)n2)C[C@@H](C)O1` [I-561, (2R,6S)-4-(2-(6-chloroimidazo[1,2-a]pyridin-3-yl)pyrimidin-4-yl)-2-methyl-6-(5-methyl-1H-pyrazol-4-yl)morpholine] gave an EC50 [1] of 100 to 500 nM.
`Cc1n[nH]cc1C1CN(c2nccc(-c3cnc4ccc(Cl)cn34)n2)CC(C)O1` (centres unmarked) [I-160, 4-(4-(6-chloroimidazo[1,2-a]pyridin-3-yl)pyrimidin-2-yl)-2-methyl-6-(3-methyl-1H-pyrazol-4-yl)morpholine] was tested, and the IC50 (GCN2 kinase) was < 10 nM and the EC50 [1] was 100 to 500 nM.
With `C[C@@H]1[C@H](c2cn[nH]c2)N(C2COC2)CCN1c1ccnc(-c2cnc3ccc(C(F)(F)F)cn23)n1` [I-565, 3-(4-((2R,3 S)-2-methyl-4-(oxetan-3-yl)-3-(1H-pyrazol-4-yl)piperazin-1-yl)pyrimidin-2-yl)-6-(trifluoromethyl)imidazo[1,2-a]pyridine] the EC50 [1] was < 100 nM.
`C[C@@H]1C[C@@H](c2cn[nH]c2)CN(c2ccnc(-c3cnc4ccc(C(F)(F)F)cn34)n2)C1` [I-567, 3-(4-((3R,5S)-3-methyl-5-(1H-pyrazol-4-yl)piperidin-1-yl)pyrimidin-2-yl)-6-(trifluoromethyl)imidazo[1,2-a]pyridine] was tested, and the EC50 [1] was < 100 nM.
With `C[C@H]1CN(c2ccnc(-c3cnc4ccc(C(F)(F)F)cn34)n2)C[C@@H](C(N)=O)O1` [I-562, (2S,6S)-6-methyl-4-(2-(6-(trifluoromethyl)imidazo[1,2-a]pyridin-3-yl)pyrimidin-4-yl)morpholine-2-carboxamide] the EC50 [1] was 100 to 500 nM.
For `C[C@@H]1CN(c2ccnc(-c3cnc4ccc(Cl)cn34)n2)C[C@H](c2cn[nH]c2)O1` [I-566, (2R,6S)-4-(2-(6-chloroimidazo[1,2-a]pyridin-3-yl)pyrimidin-4-yl)-2-methyl-6-(1H-pyrazol-4-yl)morpholine], the EC50 [1] was < 100 nM.
`C[C@@H]1[C@H](C(N)=O)N(C2CC2)CCN1c1ccnc(-c2cnc3ccc(Cl)cn23)n1` [I-547, (2R,3R)-4-(2-(6-chloroimidazo[1,2-a]pyridin-3-yl)pyrimidin-4-yl)-1-cyclopropyl-3-methylpiperazine-2-carboxamide] was tested, and the EC50 [1] was 100 to 500 nM.
For `C[C@@H]1CN(c2ccnc(-c3cnc4ccc(C(F)(F)F)cn34)n2)C[C@H](c2cn[nH]c2)O1` [I-564, (2R,6S)-2-methyl-6-(1H-pyrazol-4-yl)-4-(2-(6-(trifluoromethyl)imidazo[1,2-a]pyridin-3-yl)pyrimidin-4-yl)morpholine], the EC50 [1] was < 100 nM.
`C[C@@H]1C[C@@H](N=S(C)(C)=O)CN(c2ccnc(-c3cnc4ccc(C(F)F)cn34)n2)C1` [I-569, (((3R,5R)-1-(2-(6-(difluoromethyl)imidazo[1,2-a]pyridin-3-yl)pyrimidin-4-yl)-5-methylpiperidin-3-yl)imino)dimethyl-λ6-sulfanone] showed an EC50 [1] of 100 to 500 nM.
In the case of `C[C@@H]1C[C@@H](c2cn[nH]c2)CN(c2ccnc(-c3cnc4ccc(Cl)cn34)n2)C1` [I-559, 6-chloro-3-(4-((3R,5S)-3-methyl-5-(1H-pyrazol-4-yl)piperidin-1-yl)pyrimidin-2-yl)imidazo[1,2-a]pyridine], the EC50 [1] is reported as < 100 nM.
With `FC(F)(F)c1ccc2ncc(-c3ccnc(N4CCN(C[C@@H]5CCCOC5)[C@@H](c5cn[nH]c5)C4)n3)n2c1` [I-546, 3-(2-((S)-3-(1H-pyrazol-4-yl)-4-(((S)-tetrahydro-2H-pyran-3-yl)methyl)piperazin-1-yl)pyrimidin-4-yl)-6-(trifluoromethyl)imidazo[1,2-a]pyridine] the IC50 (GCN2 kinase) was < 10 nM and the IC50 [2] was < 500 nM.
`Fc1cc2ncc(-c3nccc(N4CCCC(c5c[nH]cn5)C4)n3)n2cc1Cl` (centres unmarked) [I-57, 6-Chloro-7-fluoro-3-{4-[3-(1H-imidazol-4-yl)-piperidin-1-yl]-pyrimidin-2-yl}-imidazo[1,2-a]pyridine] gave a Ki (GCN2 kinase) of 10 to 100 nM and an IC50 [2] of 500 to 5000 nM.
Compound `NC(=O)C1(C2CCCN(c3ccnc(-c4cnc5ccc(Cl)cn45)n3)C2)CC1` (centres unmarked) [I-303, 1-(1-(2-(6-chloroimidazo[1,2-a]pyridin-3-yl)pyrimidin-4-yl)piperidin-3-yl)cyclopropane-1-carboxamide] has an IC50 (GCN2 kinase) of 10 to 100 nM and an IC50 [2] of 500 to 5000 nM.
In the case of `CC1CC(N=S(C)(C)=O)CN(c2ccnc(-c3cnc4ccc(C(F)(F)F)cn34)n2)C1` (centres unmarked) [I-31, Dimethyl((5-methyl-1-(2-(6-(trifluoromethyl)imidazo[1,2-a]pyridin-3-yl)pyrimidin-4-yl)piperidin-3-yl)imino)-λ^6-sulfanone], the Ki (GCN2 kinase) is reported as 10 to 100 nM and the IC50 [2] is reported as 500 to 5000 nM.
With `NC(=O)C1CN(c2ccnc(-c3cnc4ccc(Cl)cn34)n2)CCN1C1CC1` (centres unmarked) [I-286, 4-(2-(6-chloroimidazo[1,2-a]pyridin-3-yl)pyrimidin-4-yl)-1-cyclopropylpiperazine-2-carboxamide] the IC50 (GCN2 kinase) was < 10 nM and the IC50 [2] was 500 to 5000 nM.
`NC(=O)[C@H]1CCCN(c2nccc(-c3cnc4ccc(Cl)cn34)n2)C1` [I-183, (S)-1-(4-(6-chloroimidazo[1,2-a]pyridin-3-yl)pyrimidin-2-yl)piperidine-3-carboxamide] was tested, and the IC50 (GCN2 kinase) was 10 to 100 nM and the IC50 [2] was < 500 nM.
For `C[C@@H](NS(C)(=O)=O)[C@@H]1[C@H](C)N(c2ccnc(-c3cnc4ccc(C(F)(F)F)cn34)n2)CCN1C1CC1` [I-506, N—((R)-1-((2 S,3 S)-1-cyclopropyl-3-methyl-4-(2-(6-(trifluoromethyl)imidazo[1,2-a]pyridin-3-yl)pyrimidin-4-yl)piperazin-2-yl)ethyl)methanesulfonamide], the IC50 (GCN2 kinase) was 10 to 100 nM and the IC50 [2] was 500 to 5000 nM.
For `C[C@@H]1C[C@H](N=S(C)(C)=O)CN(c2ccnc(-c3cnc4ccc(C(F)F)cn34)n2)C1` [I-340, (((3 S, 5R)-1-(2-(6-(difluoromethyl)imidazo[1,2-a]pyridin-3-yl)pyrimidin-4-yl)-5-methylpiperidin-3-yl)imino)dimethyl-λ6-sulfanone], the IC50 (GCN2 kinase) was < 10 nM and the IC50 [2] was < 500 nM.
In the case of `NC(=O)[C@H]1C[C@H](O)CN(c2nccc(-c3cnc4ccc(Cl)cn34)n2)C1` [I-316, (3 S,5S)-1-(4-(6-chloroimidazo[1,2-a]pyridin-3-yl)pyrimidin-2-yl)-5-hydroxypiperidine-3-carboxamide], the IC50 (GCN2 kinase) is reported as < 10 nM and the IC50 [2] is reported as < 500 nM.
For `CN(CC1CCCN(c2ccnc(-c3cnc4ccc(Cl)cn34)n2)C1)S(C)(=O)=O` (centres unmarked) [I-283, N-((1-(2-(6-chloroimidazo[1,2-a]pyridin-3-yl)pyrimidin-4-yl)piperidin-3-yl)methyl)-N-methylmethanesulfonamide], the IC50 (GCN2 kinase) was 10 to 100 nM and the IC50 [2] was 500 to 5000 nM.
`Cc1cc(-c2cnc3ccc(Cl)cn23)nc(N2C[C@H](C)O[C@@H](c3c[nH]nc3C)C2)n1` [I-220, (2S,6S)-4-(4-(6-chloroimidazo[1,2-a]pyridin-3-yl)-6-methylpyrimidin-2-yl)-2-methyl-6-(5-methyl-1H-pyrazol-4-yl)morpholine] showed an IC50 (GCN2 kinase) of 10 to 100 nM and an IC50 [2] of 500 to 5000 nM.
`CC1(C)CN(c2ccnc(-c3cnc4ccc(C(F)(F)F)cn34)n2)CC2(CN(S(C)(=O)=O)C2)O1` [I-304, 6,6-dimethyl-2-(methylsulfonyl)-8-(2-(6-(trifluoromethyl)imidazo[1,2-a]pyridin-3-yl)pyrimidin-4-yl)-5-oxa-2,8-diazaspiro[3.5]nonane] was tested, and the IC50 (GCN2 kinase) was 10 to 100 nM and the IC50 [2] was 500 to 5000 nM.
